What was measured:
Histone deacetylase 2 = Histone deacetylase 2 (Homo sapiens, UniProt Q92769); test: Inhibition of full length recombinant human HDAC2 using fluorescent-labeled peptide as substrate by electrophoretic mobility shift assay
[1] = Permeability of the compound by PAMPA; assay type: ADME; details: read-out: permeability
Histone deacetylase 1 = Histone deacetylase 1 (Homo sapiens, UniProt Q13547); test: Inhibition of full length recombinant human HDAC1 using fluorescent-labeled peptide as substrate by electrophoretic mobility shift assay
Chain of Histone deacetylase 1 (Q13547 whole entry): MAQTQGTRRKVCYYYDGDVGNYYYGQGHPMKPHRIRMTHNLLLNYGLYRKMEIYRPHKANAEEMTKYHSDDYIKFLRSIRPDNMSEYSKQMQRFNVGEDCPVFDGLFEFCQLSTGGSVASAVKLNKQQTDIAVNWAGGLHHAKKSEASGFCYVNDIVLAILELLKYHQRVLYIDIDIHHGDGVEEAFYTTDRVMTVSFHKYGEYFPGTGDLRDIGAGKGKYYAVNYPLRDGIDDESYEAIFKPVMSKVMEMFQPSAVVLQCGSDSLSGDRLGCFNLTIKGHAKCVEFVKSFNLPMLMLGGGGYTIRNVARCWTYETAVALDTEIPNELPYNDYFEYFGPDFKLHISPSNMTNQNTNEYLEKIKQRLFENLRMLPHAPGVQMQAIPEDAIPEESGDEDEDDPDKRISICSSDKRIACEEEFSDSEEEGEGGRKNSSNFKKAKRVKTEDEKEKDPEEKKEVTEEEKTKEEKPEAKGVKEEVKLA

Histone deacetylase 5 = Histone deacetylase 5 (Homo sapiens, UniProt Q9UQL6); test: Inhibition of full length recombinant human HDAC5 using fluorescent-labeled peptide as substrate by electrophoretic mobility shift assay
Chain of Histone deacetylase 5 (Q9UQL6 whole entry): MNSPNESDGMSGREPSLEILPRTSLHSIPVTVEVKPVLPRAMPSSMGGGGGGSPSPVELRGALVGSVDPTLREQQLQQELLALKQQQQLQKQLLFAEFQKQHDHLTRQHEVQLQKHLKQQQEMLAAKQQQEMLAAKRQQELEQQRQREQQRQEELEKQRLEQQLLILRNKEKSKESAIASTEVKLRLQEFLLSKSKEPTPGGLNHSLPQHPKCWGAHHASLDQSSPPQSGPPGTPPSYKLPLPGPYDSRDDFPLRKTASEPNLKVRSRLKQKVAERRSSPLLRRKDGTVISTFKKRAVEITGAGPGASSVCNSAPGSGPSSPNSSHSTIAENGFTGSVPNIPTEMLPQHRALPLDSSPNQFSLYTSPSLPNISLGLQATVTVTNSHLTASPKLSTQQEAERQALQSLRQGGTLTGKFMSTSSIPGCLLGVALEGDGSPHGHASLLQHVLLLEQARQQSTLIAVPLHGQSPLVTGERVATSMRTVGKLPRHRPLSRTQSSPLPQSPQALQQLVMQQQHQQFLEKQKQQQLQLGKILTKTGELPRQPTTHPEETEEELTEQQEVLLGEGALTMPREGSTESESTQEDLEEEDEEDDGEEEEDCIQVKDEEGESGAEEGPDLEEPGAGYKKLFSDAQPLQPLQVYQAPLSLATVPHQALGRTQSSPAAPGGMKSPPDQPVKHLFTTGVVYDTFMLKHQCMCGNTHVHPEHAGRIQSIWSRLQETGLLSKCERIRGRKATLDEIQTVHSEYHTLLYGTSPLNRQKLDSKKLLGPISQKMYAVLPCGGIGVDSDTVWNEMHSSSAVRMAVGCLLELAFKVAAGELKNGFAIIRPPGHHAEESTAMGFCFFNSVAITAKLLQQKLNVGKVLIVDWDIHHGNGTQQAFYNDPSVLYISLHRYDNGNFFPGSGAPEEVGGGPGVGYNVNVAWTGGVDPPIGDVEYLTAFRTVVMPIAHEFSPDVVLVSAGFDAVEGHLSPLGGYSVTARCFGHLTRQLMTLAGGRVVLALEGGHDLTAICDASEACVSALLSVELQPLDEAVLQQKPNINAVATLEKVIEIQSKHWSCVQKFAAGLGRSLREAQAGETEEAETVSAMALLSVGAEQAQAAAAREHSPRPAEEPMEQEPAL

[2] = biological target: T1, Polyamine deacetylase HDAC10 (Homo sapiens, UniProt Q969S8); test: Inhibition of full length recombinant human HDAC10 using fluorescent-labeled peptide as substrate by electrophoretic mobility shift assay
T1 sequence (Q969S8 whole entry): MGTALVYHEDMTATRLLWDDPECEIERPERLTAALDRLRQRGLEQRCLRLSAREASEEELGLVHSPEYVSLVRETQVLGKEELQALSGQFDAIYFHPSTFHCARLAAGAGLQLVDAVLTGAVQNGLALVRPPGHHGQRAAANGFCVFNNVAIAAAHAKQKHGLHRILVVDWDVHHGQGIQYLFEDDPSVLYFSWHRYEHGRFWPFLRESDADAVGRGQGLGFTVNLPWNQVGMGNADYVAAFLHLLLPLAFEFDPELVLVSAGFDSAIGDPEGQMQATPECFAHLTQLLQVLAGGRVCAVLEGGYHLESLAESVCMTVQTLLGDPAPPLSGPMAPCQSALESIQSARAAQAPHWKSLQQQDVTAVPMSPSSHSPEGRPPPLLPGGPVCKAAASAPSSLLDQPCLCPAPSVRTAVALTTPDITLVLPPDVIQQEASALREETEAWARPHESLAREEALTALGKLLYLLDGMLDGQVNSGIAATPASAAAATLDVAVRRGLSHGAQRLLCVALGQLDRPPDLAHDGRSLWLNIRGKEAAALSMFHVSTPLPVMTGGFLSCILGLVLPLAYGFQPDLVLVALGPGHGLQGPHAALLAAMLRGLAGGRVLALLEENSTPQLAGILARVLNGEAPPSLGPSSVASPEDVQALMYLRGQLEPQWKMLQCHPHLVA

Histone deacetylase 7 = biological target: T2, Histone deacetylase 7 (Homo sapiens, UniProt Q8WUI4); test: Inhibition of full length recombinant human HDAC7 using fluorescent-labeled peptide as substrate by electrophoretic mobility shift assay
T2 sequence (Q8WUI4 whole entry): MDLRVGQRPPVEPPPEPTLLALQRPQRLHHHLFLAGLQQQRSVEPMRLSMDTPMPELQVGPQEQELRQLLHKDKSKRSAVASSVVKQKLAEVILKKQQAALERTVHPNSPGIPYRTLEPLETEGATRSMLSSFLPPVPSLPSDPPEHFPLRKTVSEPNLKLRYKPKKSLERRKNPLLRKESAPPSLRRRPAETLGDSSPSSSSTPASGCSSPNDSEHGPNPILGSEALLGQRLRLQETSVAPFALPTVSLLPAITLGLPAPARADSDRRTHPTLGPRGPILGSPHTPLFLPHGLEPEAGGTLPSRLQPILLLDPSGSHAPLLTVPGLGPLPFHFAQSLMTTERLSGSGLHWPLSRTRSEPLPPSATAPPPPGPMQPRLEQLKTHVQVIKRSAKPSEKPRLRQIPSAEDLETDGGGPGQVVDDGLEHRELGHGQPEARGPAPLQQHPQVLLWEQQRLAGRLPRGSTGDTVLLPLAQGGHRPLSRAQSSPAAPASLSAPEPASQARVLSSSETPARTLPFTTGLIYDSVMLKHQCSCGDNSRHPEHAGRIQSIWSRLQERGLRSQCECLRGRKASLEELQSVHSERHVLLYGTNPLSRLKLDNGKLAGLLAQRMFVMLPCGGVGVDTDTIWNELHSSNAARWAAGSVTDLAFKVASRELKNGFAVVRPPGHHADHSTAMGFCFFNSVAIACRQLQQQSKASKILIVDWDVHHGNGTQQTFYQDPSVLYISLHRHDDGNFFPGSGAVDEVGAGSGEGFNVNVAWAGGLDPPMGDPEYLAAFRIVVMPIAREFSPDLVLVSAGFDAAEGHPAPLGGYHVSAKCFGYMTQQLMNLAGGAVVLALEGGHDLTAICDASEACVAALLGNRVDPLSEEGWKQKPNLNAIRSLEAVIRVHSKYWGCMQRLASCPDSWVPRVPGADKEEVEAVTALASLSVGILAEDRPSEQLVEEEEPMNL

Histone deacetylase 9 = Histone deacetylase 9 (Homo sapiens, UniProt Q9UKV0); test: Inhibition of full length recombinant human HDAC9 using fluorescent-labeled peptide as substrate by electrophoretic mobility shift assay
Chain of Histone deacetylase 9 (Q9UKV0 whole entry): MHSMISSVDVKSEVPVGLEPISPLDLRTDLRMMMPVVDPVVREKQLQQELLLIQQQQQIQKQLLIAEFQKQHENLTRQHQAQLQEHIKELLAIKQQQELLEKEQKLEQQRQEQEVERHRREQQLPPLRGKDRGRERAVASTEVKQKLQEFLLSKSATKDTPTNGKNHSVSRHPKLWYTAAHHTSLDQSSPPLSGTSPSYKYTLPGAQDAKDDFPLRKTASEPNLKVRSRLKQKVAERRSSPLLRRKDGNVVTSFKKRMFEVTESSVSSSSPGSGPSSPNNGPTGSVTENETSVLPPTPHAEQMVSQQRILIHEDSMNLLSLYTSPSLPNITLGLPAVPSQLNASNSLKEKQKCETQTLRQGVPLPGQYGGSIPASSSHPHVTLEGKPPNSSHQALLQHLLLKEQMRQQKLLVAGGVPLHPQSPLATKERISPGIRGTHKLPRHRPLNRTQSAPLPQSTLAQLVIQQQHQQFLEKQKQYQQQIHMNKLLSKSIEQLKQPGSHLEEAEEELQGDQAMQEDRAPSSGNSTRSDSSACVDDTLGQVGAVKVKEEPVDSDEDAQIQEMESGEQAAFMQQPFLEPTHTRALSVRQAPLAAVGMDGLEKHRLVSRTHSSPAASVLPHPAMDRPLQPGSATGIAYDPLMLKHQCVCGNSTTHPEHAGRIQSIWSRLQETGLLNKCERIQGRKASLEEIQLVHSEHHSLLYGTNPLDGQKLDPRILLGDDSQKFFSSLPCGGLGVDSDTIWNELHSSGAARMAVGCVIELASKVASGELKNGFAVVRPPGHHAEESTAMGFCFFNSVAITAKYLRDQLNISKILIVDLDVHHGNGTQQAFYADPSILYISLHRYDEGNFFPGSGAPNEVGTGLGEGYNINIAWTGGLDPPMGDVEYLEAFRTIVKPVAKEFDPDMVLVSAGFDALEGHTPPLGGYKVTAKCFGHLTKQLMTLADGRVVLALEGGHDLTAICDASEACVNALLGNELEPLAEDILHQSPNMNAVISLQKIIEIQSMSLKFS

Histone deacetylase 8 = biological target: T3, Histone deacetylase 8 (Homo sapiens, UniProt Q9BY41); test: Inhibition of full length recombinant human HDAC8 using fluorescent-labeled peptide as substrate by electrophoretic mobility shift assay
T3 sequence (Q9BY41 whole entry): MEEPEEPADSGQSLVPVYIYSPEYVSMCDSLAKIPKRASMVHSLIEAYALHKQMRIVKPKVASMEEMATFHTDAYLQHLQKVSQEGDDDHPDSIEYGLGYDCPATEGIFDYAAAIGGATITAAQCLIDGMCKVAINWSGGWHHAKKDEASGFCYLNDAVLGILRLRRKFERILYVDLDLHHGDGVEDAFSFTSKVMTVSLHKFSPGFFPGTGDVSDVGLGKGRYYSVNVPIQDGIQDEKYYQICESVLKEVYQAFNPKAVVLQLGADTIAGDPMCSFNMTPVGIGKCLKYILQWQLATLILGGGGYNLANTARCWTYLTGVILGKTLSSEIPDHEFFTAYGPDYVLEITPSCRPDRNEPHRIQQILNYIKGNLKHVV

Histone deacetylase 3 = Histone deacetylase 3 (Homo sapiens, UniProt O15379); test: Inhibition of full length recombinant human HDAC3 using fluorescent-labeled peptide as substrate by electrophoretic mobility shift assay
Chain of Histone deacetylase 3 (O15379 whole entry): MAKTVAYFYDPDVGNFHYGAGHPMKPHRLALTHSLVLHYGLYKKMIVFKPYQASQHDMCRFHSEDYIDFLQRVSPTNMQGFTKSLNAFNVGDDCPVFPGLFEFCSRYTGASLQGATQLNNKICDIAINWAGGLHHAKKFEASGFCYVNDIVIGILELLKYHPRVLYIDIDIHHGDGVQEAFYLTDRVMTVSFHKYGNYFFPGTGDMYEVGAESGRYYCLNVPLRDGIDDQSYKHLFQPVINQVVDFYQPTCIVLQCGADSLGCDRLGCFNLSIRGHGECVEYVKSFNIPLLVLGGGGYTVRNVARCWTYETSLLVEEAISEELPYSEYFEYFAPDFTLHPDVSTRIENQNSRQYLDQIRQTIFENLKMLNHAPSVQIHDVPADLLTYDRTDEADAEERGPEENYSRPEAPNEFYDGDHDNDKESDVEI

Histone deacetylase 4 = Histone deacetylase 4 (Homo sapiens, UniProt P56524); test: Inhibition of full length recombinant human HDAC4 using fluorescent-labeled peptide as substrate by electrophoretic mobility shift assay
Chain of Histone deacetylase 4 (P56524 whole entry): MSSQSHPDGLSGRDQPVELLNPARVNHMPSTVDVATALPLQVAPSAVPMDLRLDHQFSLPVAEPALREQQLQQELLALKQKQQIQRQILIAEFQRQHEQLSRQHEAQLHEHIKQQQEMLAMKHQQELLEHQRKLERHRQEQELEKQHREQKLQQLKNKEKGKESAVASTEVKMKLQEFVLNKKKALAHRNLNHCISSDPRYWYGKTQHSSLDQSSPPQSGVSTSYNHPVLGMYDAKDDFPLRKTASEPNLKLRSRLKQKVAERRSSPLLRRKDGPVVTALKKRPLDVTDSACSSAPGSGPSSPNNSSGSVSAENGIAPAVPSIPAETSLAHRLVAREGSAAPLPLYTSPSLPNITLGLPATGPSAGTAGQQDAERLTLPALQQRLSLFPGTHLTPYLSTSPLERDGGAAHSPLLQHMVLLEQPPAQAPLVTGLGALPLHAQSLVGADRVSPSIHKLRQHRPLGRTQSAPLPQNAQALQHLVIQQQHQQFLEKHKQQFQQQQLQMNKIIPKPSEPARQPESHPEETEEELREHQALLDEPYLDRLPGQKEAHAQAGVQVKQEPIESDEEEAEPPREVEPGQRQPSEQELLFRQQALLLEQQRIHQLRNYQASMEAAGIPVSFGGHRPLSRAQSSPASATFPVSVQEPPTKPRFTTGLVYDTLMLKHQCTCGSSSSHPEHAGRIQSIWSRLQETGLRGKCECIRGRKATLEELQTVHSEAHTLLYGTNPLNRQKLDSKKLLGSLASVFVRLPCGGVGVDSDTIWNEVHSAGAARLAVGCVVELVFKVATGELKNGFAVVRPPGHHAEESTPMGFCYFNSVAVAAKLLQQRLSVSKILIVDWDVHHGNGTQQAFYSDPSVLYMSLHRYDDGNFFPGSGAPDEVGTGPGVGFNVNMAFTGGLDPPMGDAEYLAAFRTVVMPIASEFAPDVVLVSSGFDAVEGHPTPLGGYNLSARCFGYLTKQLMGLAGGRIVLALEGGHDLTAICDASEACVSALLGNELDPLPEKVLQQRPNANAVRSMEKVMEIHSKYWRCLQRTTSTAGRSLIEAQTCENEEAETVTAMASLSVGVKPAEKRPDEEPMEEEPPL

Histone deacetylase 11 = biological target: T4, Histone deacetylase 11 (Homo sapiens, UniProt Q96DB2); test: Inhibition of full length recombinant human HDAC11 expressed in baculoviral expression system using FAM-RHKK as substrate by electrophoretic mobility shift assay
T4 sequence (Q96DB2 whole entry): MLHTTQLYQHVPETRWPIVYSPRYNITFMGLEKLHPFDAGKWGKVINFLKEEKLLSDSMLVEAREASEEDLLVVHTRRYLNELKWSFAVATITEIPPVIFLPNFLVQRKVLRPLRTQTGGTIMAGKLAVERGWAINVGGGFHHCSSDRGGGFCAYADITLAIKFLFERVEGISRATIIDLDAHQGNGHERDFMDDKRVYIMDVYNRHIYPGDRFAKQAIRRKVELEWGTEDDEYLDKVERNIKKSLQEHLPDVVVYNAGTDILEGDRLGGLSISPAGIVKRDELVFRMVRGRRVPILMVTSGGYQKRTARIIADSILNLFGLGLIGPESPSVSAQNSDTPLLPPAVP

Chain of Histone deacetylase 2 (Q92769 whole entry): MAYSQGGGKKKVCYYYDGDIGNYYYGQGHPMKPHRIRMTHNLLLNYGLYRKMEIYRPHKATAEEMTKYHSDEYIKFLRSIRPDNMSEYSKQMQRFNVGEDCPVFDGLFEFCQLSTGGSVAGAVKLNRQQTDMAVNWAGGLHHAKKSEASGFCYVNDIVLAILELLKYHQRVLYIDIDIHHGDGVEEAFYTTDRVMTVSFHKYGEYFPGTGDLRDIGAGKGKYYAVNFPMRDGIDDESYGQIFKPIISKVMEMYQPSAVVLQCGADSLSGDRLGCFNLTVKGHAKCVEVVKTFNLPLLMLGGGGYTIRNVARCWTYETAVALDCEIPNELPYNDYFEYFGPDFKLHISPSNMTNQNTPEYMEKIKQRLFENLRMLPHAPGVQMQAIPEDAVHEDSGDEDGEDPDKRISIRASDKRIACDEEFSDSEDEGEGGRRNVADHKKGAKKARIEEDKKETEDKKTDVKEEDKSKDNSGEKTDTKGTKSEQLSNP

IC50 (Histone deacetylase 2): > 10 µM | Papp [1]: 17 ×10⁻⁶ cm/s | IC50 (Histone deacetylase 1): > 10 µM | IC50 (Histone deacetylase 5): > 10 µM | IC50 [2]: > 10 µM | IC50 (Histone deacetylase 7): > 10 µM | IC50 (Histone deacetylase 9): > 10 µM | IC50 (Histone deacetylase 8): > 10 µM | IC50 (Histone deacetylase 3): > 10 µM | IC50 (Histone deacetylase 4): > 10 µM | IC50 (Histone deacetylase 11): > 10 µM
SMILES: CC1(C)c2cccc(C(N)=O)c2CN1c1cnc(C(F)(F)F)cn1

Source: ChEMBL document CHEMBL4118189, “Discovery of novel N-hydroxy-2-arylisoindoline-4-carboxamides as potent and selective inhibitors of HDAC11” (Bioorg Med Chem Lett, 2018)
